# “Also recorded” adds a separate entry of the source. Like-named read-outs stand apart in the source and are kept apart here.
# Tests used:
# Streptococcus faecium [1] = conditions: cited from earlier work
# Streptococcus faecium [2] = test: Growth inhibition of Streptococcus faecium (ATCC 8043); type: cell-based; conditions: for Minimum Inhibitory Concentration50 for growth inhibition, S. faecium: S. faecium ATCC 8043; for Minimum Inhibitory Concentration50 for growth inhibition, S. faecium / IC50: folate concentration = 1 ng/mL; for potency against S. faecium, comparison: comparison in words; for IC50: Enterococcus faecium, ATCC8043, read-out: Minimum Inhibitory Concentration50 for growth inhibition, S. faecium, S. faecium ATCC 8043
# [3] = biological target: T1, dihydrofolate reductase derived from L1210 (Mus musculus, UniProt P00375); test: Inhibition of dihydrofolate reductase derived from L1210 cells; type: biochemical; conditions: comparison in words
# T1 construct: dihydrofolate reductase derived from L1210; endogenous in cells; host or cells: L1210 cells
# T1 sequence (P00375 1-187): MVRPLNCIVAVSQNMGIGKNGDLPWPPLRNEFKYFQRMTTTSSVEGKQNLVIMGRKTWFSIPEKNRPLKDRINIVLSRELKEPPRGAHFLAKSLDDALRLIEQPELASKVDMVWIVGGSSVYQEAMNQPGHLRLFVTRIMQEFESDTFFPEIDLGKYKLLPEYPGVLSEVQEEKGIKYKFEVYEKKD
# [4] = biological target: T2, transport protein of L1210 (Mus musculus, UniProt P41438); test: Transport (influx, efflux) in L1210 cells; type: cell-based; conditions: average of 3-6 runs, standard error less than 15%
# T2 sequence (P41438 1-512): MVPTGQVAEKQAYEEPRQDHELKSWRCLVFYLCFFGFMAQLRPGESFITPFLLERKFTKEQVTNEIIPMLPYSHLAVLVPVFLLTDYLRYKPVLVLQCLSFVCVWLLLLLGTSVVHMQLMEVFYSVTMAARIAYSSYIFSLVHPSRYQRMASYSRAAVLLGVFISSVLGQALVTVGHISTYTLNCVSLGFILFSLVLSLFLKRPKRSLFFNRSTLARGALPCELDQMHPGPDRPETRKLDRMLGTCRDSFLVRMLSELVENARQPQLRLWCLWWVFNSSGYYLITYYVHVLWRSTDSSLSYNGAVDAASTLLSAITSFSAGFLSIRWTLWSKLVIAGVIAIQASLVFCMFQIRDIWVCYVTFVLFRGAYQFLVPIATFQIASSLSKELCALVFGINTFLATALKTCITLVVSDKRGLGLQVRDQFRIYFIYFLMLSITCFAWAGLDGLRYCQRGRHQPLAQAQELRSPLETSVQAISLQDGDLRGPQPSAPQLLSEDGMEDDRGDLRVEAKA
# L1210 cells = test: Growth inhibition of L1210 cells; type: cell-based; conditions: for IC50: average of 3-6 runs, standard error less than 15%, read-out: growth inhibn (minimum inhibitory concentration50); for inhibition of growth for L1210 cells, comparison between isomers: comparison in words
# [5] = system: leukemia, as well as other malignancies, including ascitic tumors; conditions: warm-blooded lower animals; cited from earlier work
# [6] = system: human mammary, lung and colon tumor xenografts; conditions: lung and colon tumor xenografts in nude mice; cited from earlier work
# [7] = Various in vitro assays (general statement); conditions: Tables I, II and III
# L1210 leukemia = test: Antitumor activity against L1210 leukemia in mice; type: in vivo, BD (2) F1 female mice; conditions: sc every 2 days times 5; for Mean Survival Time: untreated control 6.6 days
# [8] = system: experimental murine tumor models; conditions: compared with methotrexate or 10-deazaminopterin; cited from earlier work
# [9] = biological target: dihydrofolate reductase derived from L. casei (Lacticaseibacillus casei, UniProt P00381); test: DHFR inhibition, enzyme derived from L. casei; type: biochemical; conditions: relative to l,L-isomer
# Chain of dihydrofolate reductase derived from L. casei (P00381 whole entry): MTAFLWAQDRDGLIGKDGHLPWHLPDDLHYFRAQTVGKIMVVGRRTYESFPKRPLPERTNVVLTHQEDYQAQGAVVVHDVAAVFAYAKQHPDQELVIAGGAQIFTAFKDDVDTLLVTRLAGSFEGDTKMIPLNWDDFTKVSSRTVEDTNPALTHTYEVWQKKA
# [10] = Mus musculus, L1210, L1210 cells
# [11] = 9 mg/kg, listed as racemic mixture
# [12] = 12 mg/kg, listed as racemic mixture
# [13] = 18 mg/kg, listed as racemic mixture
# [14] = 24 mg/kg, listed as racemic mixture
smiles,measurement,setting,value
Nc1nc2c(c(=O)[nH]1)NC(CCc1ccc(C(=O)O)cc1)CN2 (stereo not drawn),growth-inhibitory activity against Streptococcus faecium,Streptococcus faecium [1],Activity was greatly enhanced by reduction to the tetrahydro compound
"CCC(CC1CNc2nc(N)nc(N)c2N1)c1ccc(C(=O)N[C@@H](CCC(=O)O)C(=O)O)cc1 (mixture of isomers) [5,6,7,8-tetrahydro racemic mixture]","Minimum Inhibitory Concentration50 for growth inhibition, S. faecium",Streptococcus faecium [2],2.6 ng/mL
"CC(Cc1cnc2nc(N)nc(N)c2n1)c1ccc(C(=O)N[C@@H](CCC(=O)O)C(=O)O)cc1 (single isomer, unassigned) [d, L-10-methyl, 10-methyl-10-deazaminopterin]","inhibition of dihydrofolate reductase derived from L1210, comparison between isomers",[3],not significantly different from one another or MTX
same,transport efflux k,[4],0.258 min⁻¹
same,IC50,L1210 cells; L1210 cells,0.68 nM
same,"inhibition of growth for L1210 cells, comparison between isomers",L1210 cells,not a significant difference
"CCC(Cc1cnc2nc(N)nc(N)c2n1)c1ccc(C(=O)N[C@@H](CCC(=O)O)C(=O)O)cc1 (single isomer, unassigned) [l, L-10-ethyl, l,L-10-ethyl-10-deazaminopterin]",transport efflux k,[4],0.249 min⁻¹
same,"potency against S. faecium, comparison",Streptococcus faecium [2],"slightly more potent than the d,L-isomer"
same,IC50,L1210 cells; [10],1.52 nM
same,"inhibition of growth for L1210 cells, comparison between isomers",L1210 cells,"only one-third as potent as the d,L isomer"
"CC(Cc1cnc2nc(N)nc(N)c2n1)c1ccc(C(=O)N[C@@H](CCC(=O)O)C(=O)O)cc1 (single isomer, unassigned) [l, L-10-methyl, 10-methyl-10-deazaminopterin]","inhibition of dihydrofolate reductase derived from L1210, comparison between isomers",[3],not significantly different from one another or MTX
same,transport efflux k,[4],0.267 min⁻¹
same,IC50,L1210 cells; [10],1.18 nM
same,"inhibition of growth for L1210 cells, comparison between isomers",L1210 cells,not a significant difference
"CCC(CC1CNc2nc(N)nc(N)c2N1)c1ccc(C(=O)N[C@@H](CCC(=O)O)C(=O)O)cc1 (stereo partly drawn) [5,6,7,8-tetrahydro d, L]","Minimum Inhibitory Concentration50 for growth inhibition, S. faecium",Streptococcus faecium [2],2.5 ng/mL
same,"potency against S. faecium, comparison",Streptococcus faecium [2],"slightly more potent than the l,L isomer"
"CCC(CC1CNc2nc(N)nc(N)c2N1)c1ccc(C(=O)N[C@@H](CCC(=O)O)C(=O)O)cc1 (stereo partly drawn) [5,6,7,8-tetrahydro l, L]",IC50,Streptococcus faecium [2],3.1 ng/mL
"CCC(CC1=Nc2c(N)nc(N)nc2NC1)c1ccc(C(=O)N[C@@H](CCC(=O)O)C(=O)O)cc1 (stereo partly drawn) [7,8-dihydro l, L]",IC50,Streptococcus faecium [2],1.1 ng/mL
Nc1nc(N)c2nc(CCc3ccc(C(=O)NC(CCC(=O)O)C(=O)O)cc3)cnc2n1 (stereo not drawn) [10-deazaminopterin],"amelioration of leukemia and other malignancies, including ascitic tumors",[5],can be ameliorated
Nc1nc2ncc(CCc3ccc(C(=O)O)cc3)nc2c(=O)[nH]1 [10-deazapteroic acid],growth-inhibitory activity against Streptococcus faecium,Streptococcus faecium [1],potent growth-inhibitory activity
CCC(Cc1cnc2nc(N)nc(N)c2n1)c1ccc(C(=O)N[C@@H](CCC(=O)O)C(=O)O)cc1 (stereo partly drawn) [10-ethyl-10-deazaminopterin],regression of human tumor xenografts,[6],frank regressions
same,"inhibitory activity in the various in vitro assays, comparison",[7],"intermediate between the values for the resolved d,L and l,L diasteromers"
same,30-day survivors,L1210 leukemia; [11],0/10
same,Increased Life Span,L1210 leukemia; [11],+135%
same,Toxic deaths,L1210 leukemia; [11],0/10
same,Mean Survival Time,L1210 leukemia; [11],15.5 ± 0.6 days
same,30-day survivors,L1210 leukemia; [12],0/10
same,Increased Life Span,L1210 leukemia; [12],+153%
same,Toxic deaths,L1210 leukemia; [12],0/10
same,Mean Survival Time,L1210 leukemia; [12],16.7 ± 0.7 days
same,30-day survivors,L1210 leukemia; [13],0/10
same,Increased Life Span,L1210 leukemia; [13],+193%
same,Toxic deaths,L1210 leukemia; [13],0/10
same,Mean Survival Time,L1210 leukemia; [13],19.3 ± 0.8 days
same,30-day survivors,L1210 leukemia; [14],2/10
same,Increased Life Span,L1210 leukemia; [14],> +207%
same,Toxic deaths,L1210 leukemia; [14],2/10
same,Mean Survival Time,L1210 leukemia; [14],20.3 ± 1.9 days
same,30-day survivors,L1210 leukemia; 32 mg/kg,0/10
same,Increased Life Span,L1210 leukemia; 32 mg/kg,+67%
same,Toxic deaths,L1210 leukemia; 32 mg/kg,10/10
same,Mean Survival Time,L1210 leukemia; 32 mg/kg,16.0 ± 1.1 days
same,effectiveness in experimental murine tumor models,[8],considerably more effective than methotrexate or 10-deazaminopterin
"CCC(Cc1cnc2nc(N)nc(N)c2n1)c1ccc(C(=O)N[C@@H](CCC(=O)O)C(=O)O)cc1 (stereo partly drawn) [d, L-10-ethyl, d,L-10-ethyl-10-deazaminopterin]","inhibition of dihydrofolate reductase derived from L1210, comparison between isomers","[3]; listed as d,L isomer of 10-ethyl-10-deazaminopterin","significantly more effective; also recorded: three-fold difference between l,L and d,L isomers"
same,transport efflux k,[4],0.253 min⁻¹
same,30-day survivors,"L1210 leukemia; 9 mg/kg, listed as d, L",0/6
same,Increased Life Span,"L1210 leukemia; 9 mg/kg, listed as d, L",+177%
same,Toxic deaths,"L1210 leukemia; 9 mg/kg, listed as d, L",0/6
same,Mean Survival Time,"L1210 leukemia; 9 mg/kg, listed as d, L",18.3 ± 1.7 days
same,30-day survivors,"L1210 leukemia; 12 mg/kg, listed as d, L",0/9
same,Increased Life Span,"L1210 leukemia; 12 mg/kg, listed as d, L",+199%
same,Toxic deaths,"L1210 leukemia; 12 mg/kg, listed as d, L",3/9
same,Mean Survival Time,"L1210 leukemia; 12 mg/kg, listed as d, L",19.8 ± 2.3 days
same,30-day survivors,"L1210 leukemia; 18 mg/kg, listed as d, L",1/9
same,Increased Life Span,"L1210 leukemia; 18 mg/kg, listed as d, L",> +165%
same,Toxic deaths,"L1210 leukemia; 18 mg/kg, listed as d, L",5/9
same,Mean Survival Time,"L1210 leukemia; 18 mg/kg, listed as d, L",17.5 ± 1.5 days
same,30-day survivors,"L1210 leukemia; 24 mg/kg, listed as d, L",0/3
same,Increased Life Span,"L1210 leukemia; 24 mg/kg, listed as d, L",+55%
same,Toxic deaths,"L1210 leukemia; 24 mg/kg, listed as d, L",3/3
same,Mean Survival Time,"L1210 leukemia; 24 mg/kg, listed as d, L",10.0 ± 0 days
same,"potency against the L. casei enzyme, d,L-isomer over l,L-isomer",[9],approximately three-fold greater potency
same,IC50,L1210 cells; [10],0.43 nM
same,"inhibition of growth for L1210 cells, comparison between isomers",L1210 cells,significantly more effective
"CN(Cc1cnc2nc(N)nc(N)c2n1)c1ccc(C(=O)N[C@@H](CCC(=O)O)C(=O)O)cc1 [methotrexate, reference compound]",transport efflux k,[4],0.213 min⁻¹
same,30-day survivors,L1210 leukemia; 9 mg/kg,0/10
same,Increased Life Span,L1210 leukemia; 9 mg/kg,+137%
same,Toxic deaths,L1210 leukemia; 9 mg/kg,0/10
same,Mean Survival Time,L1210 leukemia; 9 mg/kg,15.7 ± 0.4 days
same,30-day survivors,L1210 leukemia; 12 mg/kg,0/10
same,Toxic deaths,L1210 leukemia; 12 mg/kg,1/10
same,Mean Survival Time,L1210 leukemia; 12 mg/kg,16.3 ± 0.7 days
same,30-day survivors,L1210 leukemia; 18 mg/kg,0/10
same,Increased Life Span,L1210 leukemia; 18 mg/kg,+119%
same,Toxic deaths,L1210 leukemia; 18 mg/kg,6/10
same,Mean Survival Time,L1210 leukemia; 18 mg/kg,14.5 ± 1.6 days
same,30-day survivors,L1210 leukemia; 24 mg/kg,0/10
same,Increased Life Span,L1210 leukemia; 24 mg/kg,+46%
same,Toxic deaths,L1210 leukemia; 24 mg/kg,10/10
same,Mean Survival Time,L1210 leukemia; 24 mg/kg,9.6 ± 1.1 days
same,IC50,L1210 cells; L1210 cells,2.48 nM

# — patent publication US4746659A, “Diastereomers of 10-alkyl-10-deazaminopterins and process for preparing the same” (priority 1985, dated 1988)
